According to ChEMBL document CHEMBL1141905, “3,4-disubstituted azetidinones as selective inhibitors of the cysteine protease cathepsin K. Exploring P3 elements for potency and selectivity” (Bioorg Med Chem Lett, 2005):

How the values were obtained:
[1] = biological target: Cathepsin B (Homo sapiens) (UniProt P07858); test: Apparent inhibitory constant against human cathepsin B
[2] = biological target: Cathepsin S (Homo sapiens) (UniProt P25774); test: Apparent inhibitory constant against human cathepsin S
Chain of Cathepsin S (Homo sapiens) (P25774 115-331 limits assumed): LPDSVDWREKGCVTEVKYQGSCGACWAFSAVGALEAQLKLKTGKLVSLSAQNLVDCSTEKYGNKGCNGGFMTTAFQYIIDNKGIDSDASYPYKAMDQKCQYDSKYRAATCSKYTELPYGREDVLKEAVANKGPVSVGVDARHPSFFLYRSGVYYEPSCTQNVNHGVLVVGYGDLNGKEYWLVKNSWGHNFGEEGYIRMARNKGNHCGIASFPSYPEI

[3] = biological target: T1, Cathepsin K (Oryctolagus cuniculus) (UniProt P43236); test: Apparent inhibitory constant against rabbit cathepsin K
T1 sequence (whole entry): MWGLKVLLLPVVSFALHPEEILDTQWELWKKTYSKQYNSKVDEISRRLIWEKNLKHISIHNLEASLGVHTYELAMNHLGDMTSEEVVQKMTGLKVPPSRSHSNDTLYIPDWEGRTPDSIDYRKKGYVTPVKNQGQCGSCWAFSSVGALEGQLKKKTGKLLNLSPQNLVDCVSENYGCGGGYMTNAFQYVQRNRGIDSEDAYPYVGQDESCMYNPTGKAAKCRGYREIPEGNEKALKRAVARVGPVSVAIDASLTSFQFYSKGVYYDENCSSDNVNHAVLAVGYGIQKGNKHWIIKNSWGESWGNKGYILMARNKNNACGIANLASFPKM

[4] = biological target: Procathepsin L (Homo sapiens) (UniProt P07711);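 note: apparent inhibition constant, determined on the human enzyme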
Chain of Procathepsin L (Homo sapiens) (P07711 114-333 limits assumed): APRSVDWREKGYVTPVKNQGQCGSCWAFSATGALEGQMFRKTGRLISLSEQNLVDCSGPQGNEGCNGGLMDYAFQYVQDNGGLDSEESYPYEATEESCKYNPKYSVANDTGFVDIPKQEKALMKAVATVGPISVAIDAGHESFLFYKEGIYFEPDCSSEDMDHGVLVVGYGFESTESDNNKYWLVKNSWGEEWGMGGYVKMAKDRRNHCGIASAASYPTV

[5] = Beta half life period; assay type: ADME
[6] = Alpha half life period; assay type: ADME
[7] = Clearance following intravenous administration evaluated as high; assay type: ADME, organism-based; settings: in vivo
[8] = Mean residence time by intravenous administration; assay type: ADME, organism-based; settings: in vivo
[9] = Volume of distribution following intravenous administration evaluated as moderate; assay type: ADME, organism-based; settings: in vivo

Structure (SMILES) | Ki'' [1] [µM] | Ki'' [2] [µM] | Ki'' [3] [µM] | Ki'' [4] [µM] | half-life [5] [min] | half-life [6] [min] | clearance [7] [mL/min/kg] | MRT [8] [min] | Vd [9] [L/kg]
CC(=O)O[C@@H]1NC(=O)[C@H]1NC(=O)C1(NC(=O)OCc2ccccc2)CCCCC1 | 4.3 | 0.95 | 0.057 | 6.8 |  |  |  |  | 
CC(=O)O[C@@H]1NC(=O)[C@H]1NC(=O)C1(NC(=O)c2ccc(-c3csc(NN4CCN(C)CC4)n3)cc2)CCCCC1 | 0.091 | 8.8 | 0.00025 | 2.1 |  |  |  |  | 
CC(=O)O[C@@H]1NC(=O)[C@H]1NC(=O)C1(NC(=O)c2ccc(N3CCN(C)CC3)cc2)CCCCC1 | 0.49 | 8.8 | 0.0011 | 1.4 |  |  |  |  | 
CN1CCN(Nc2nc(-c3ccc(C(=O)NC4(C(=O)N[C@@H]5C(=O)N[C@@H]5Oc5ccccc5)CCCCC4)cc3)cs2)CC1 | 5.2 | 150 | 0.0082 | 0.0082 |  |  |  |  | 
CC(=O)O[C@@H]1NC(=O)[C@H]1NC(=O)C1(NC(=O)c2ccc(Cl)cc2)CCCCC1 | 2.1 | 3.4 | 0.092 | 8.2 |  |  |  |  | 
CN(C)c1nc(-c2ccc(C(=O)NC3(C(=O)N[C@@H]4C(=O)N[C@H]4Oc4ccccc4)CCCCC3)cc2)cs1 | 25 | 10 | 0.018 | 0.089 |  |  |  |  | 
CN1CCN(c2nc(-c3ccc(C(=O)NC4(C(=O)N[C@@H]5C(=O)N[C@@H]5Oc5ccccc5)CCCCC4)cc3)cs2)CC1 |  |  |  |  | 21 | 2 | 92 | 17 | 1.6
CC(=O)O[C@@H]1NC(=O)[C@H]1NC(=O)C1(NC(=O)c2ccc(N(C)C)cc2)CCCCC1 | 0.53 | 2.8 | 0.0031 | 2.1 |  |  |  |  | 
CC(=O)O[C@@H]1NC(=O)[C@H]1NC(=O)C1(NC(=O)c2ccc(N3CCOCC3)cc2)CCCCC1 | 0.98 | 14 | 0.005 | 19 |  |  |  |  | 
CSc1ccc(C(=O)NC2(C(=O)N[C@@H]3C(=O)N[C@H]3OC(C)=O)CCCCC2)cc1 | 1.2 | 3.5 | 0.012 | 6.4 |  |  |  |  | 
CC(=O)O[C@@H]1NC(=O)[C@H]1NC(=O)C1(NC(=O)c2ccc(-c3csc(N(C)C)n3)cc2)CCCCC1 | 1.4 | 7.7 | 0.0026 | 0.39 |  |  |  |  | 
CC(=O)O[C@@H]1NC(=O)[C@H]1NC(=O)C1(NC(=O)c2ccc(-c3csc(CN4CCOCC4)n3)cc2)CCCCC1 | 1.7 | 12 | 0.0075 | 11 |  |  |  |  | 
CN1CCN(Nc2nc(-c3ccc(C(=O)NC4(C(=O)N[C@@H]5C(=O)N[C@H]5Oc5ccccc5)CCCCC4)cc3)cs2)CC1 | 6 | 140 | 0.00026 | 0.31 |  |  |  |  | 
CC(=O)O[C@@H]1NC(=O)[C@H]1NC(=O)C1(NC(=O)c2ccc(-c3csc(N4CCN(C)CC4)n3)cc2)CCCCC1 | 0.94 | 8.5 | 0.0011 | 3.3 |  |  |  |  | 
